According to patent publication US7696244B2, “Compounds having activity in increasing ion transport by mutant-CFTR and uses thereof” (The Regents of the University of California, priority 2003, dated 2010):

Key:
human ΔF508-CFTR = molecular target: T1, human ΔF508-CFTR (Homo sapiens, UniProt P13569, DEL508-508); experiment: Fluorescence (YFP-H148Q/I152L) I− influx assay of ΔF508-CFTR potentiator activity in FRT cells; format: cell-based; conditions: for Kd: FRT cells, 27° C. rescue, forskolin 20 μM, read-out: Kd for activation of ΔF508-CFTR from the fluorescence assay
T1 construct: expressed in transfected cells; host or cells: Fischer rat thyroid (FRT) epithelial cells
T1 sequence (P13569 with tags, fused parts or gaps DEL508-508): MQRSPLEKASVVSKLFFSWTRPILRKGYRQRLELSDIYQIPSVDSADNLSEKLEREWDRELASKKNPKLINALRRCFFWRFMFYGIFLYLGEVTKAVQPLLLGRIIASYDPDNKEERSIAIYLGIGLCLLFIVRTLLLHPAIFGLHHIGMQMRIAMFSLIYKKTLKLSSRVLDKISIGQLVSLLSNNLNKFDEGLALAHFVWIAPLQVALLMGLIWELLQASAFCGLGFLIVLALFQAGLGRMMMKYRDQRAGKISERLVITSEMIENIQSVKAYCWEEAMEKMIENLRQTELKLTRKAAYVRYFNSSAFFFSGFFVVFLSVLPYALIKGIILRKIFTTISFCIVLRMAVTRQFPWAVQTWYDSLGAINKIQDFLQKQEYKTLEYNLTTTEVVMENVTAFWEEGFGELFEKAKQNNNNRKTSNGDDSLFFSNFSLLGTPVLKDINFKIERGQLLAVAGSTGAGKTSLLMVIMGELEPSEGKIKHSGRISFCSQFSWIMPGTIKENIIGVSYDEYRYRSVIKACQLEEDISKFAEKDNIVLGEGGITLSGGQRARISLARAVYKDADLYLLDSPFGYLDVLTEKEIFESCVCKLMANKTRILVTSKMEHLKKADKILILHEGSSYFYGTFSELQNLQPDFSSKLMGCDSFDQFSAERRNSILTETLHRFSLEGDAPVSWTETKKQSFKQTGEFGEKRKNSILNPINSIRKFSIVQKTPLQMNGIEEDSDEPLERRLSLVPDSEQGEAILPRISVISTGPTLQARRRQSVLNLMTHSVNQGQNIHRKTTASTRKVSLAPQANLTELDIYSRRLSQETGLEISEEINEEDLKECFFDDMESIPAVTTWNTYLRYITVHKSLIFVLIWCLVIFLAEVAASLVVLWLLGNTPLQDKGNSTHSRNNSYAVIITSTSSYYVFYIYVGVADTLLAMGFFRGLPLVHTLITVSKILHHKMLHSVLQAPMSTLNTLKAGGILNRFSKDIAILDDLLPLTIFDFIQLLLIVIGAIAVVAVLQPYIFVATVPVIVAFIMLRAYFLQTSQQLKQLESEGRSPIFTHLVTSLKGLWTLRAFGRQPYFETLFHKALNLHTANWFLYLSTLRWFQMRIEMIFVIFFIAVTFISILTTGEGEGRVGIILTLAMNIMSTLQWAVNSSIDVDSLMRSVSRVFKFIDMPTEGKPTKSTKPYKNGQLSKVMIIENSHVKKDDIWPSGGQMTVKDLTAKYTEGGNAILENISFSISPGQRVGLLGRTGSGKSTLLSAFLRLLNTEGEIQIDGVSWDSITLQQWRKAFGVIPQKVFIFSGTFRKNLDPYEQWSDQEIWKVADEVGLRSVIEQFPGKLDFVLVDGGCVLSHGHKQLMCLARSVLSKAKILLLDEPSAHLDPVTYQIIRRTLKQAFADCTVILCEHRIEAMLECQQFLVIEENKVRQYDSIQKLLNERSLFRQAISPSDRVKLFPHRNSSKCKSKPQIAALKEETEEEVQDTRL
Procedure: (§1) Clonal populations of Fischer rat thyroid (FRT) epithelial cells stably co-expressing human ΔF508-CFTR and the high-sensitivity halide-sensing green fluorescent analog YFP-H148Q/I152L (Galietta et al., A.S. (2001) FEBS Lett. 499, 220-224) were generated by liposome transfection and limiting dilution with Zeocin/G418 selection. More than 100 clones were evaluated for high fluorescence and ΔF508-CFTR plasma membrane targeting after growth at 27° C. for 24 hours. For screening, cells were cultured on plastic in Coon's modified F12 medium supplemented with 10% fetal bovine serum, 2 mM L-glutamnine, 100 U/ml penicillin, and 100 μg/ml streptomycin, and plated on black 96-well microplates (Corning-Costar 3904) at 30,000 cells/well. For short-circuit measurements cells were cultured on Snapwell permeable supports (Corning-Costar) at 500,000 cells/insert. Some measurements were done using stably transfected FRT cells expressing YFP-H148Q and wildtype- or G551D-CFTR (Galietta et al., (2001) J. Biol. Chem. 276, 19723-19728). Patch clamp experiments were done on ΔF508-CFTR-expressing FRT cells plated in 35-mm Petri dishes.
For assay of ΔF508-CFTR potentiator activity the incubator (27° C., 90% humidity, 5% CO2/95% air) was loaded with forty-to-sixty 96-well plates containing FRT cells. After an 18-24 hour incubation plates were washed 3 times with PBS (300 μl/wash) leaving 50 μl PBS. 10 μl of PBS containing 120 μM forskolin was added, and after 5 min test compounds (0.6 μl of 0.25 mM DMSO solution) were added to each well to give 2.5 μM final-compound concentrations. After 15 min, 96-well plates were transferred to a plate reader for fluorescence assay. Each well was assayed individually for I^− influx by recording fluorescence continuously (200 ms per point) for 2 s (baseline) and then for 12 s after rapid (<1 s) addition of 160 μL of isosmolar PBS in which 137 mM Cl^− was replaced by I^−.I^− influx rates were computed from initial fluorescence versus time-curve slopes (determined by 3rd order polynomial regression) after normalization for total fluorescence (background subtracted initial fluorescence).
The high-throughput screen was designed to identify compounds that activated ΔF508-CFTR when expressed at the cell plasma membrane. FRT epithelial cells co-expressing ΔF508-CFTR and a high sensitivity green fluorescent protein-based halide indicator were incubated at 27° C. for 24 h to permit ΔF508-CFTR plasma membrane targeting (FIG. 1A). After washing, forskolin (20 μM) and test compounds (2.5 μM) were added to individual wells of 96-well plates. The I^− influx assay was carried out ˜15 min later by measurement of the time course of decreasing YFP fluorescence after creation of an inwardly-directed I^− gradient. A high concentration of forskolin was used to identify ΔF508-CFTR potentiators that may interact directly with ΔF508-CFTR rather than alter cAMP concentration. Since activation of CFTR requires cAMP stimulation, forskolin, an enhancer of cAMP, was added to the in vitro models in order to mimic the cellular cAMP stimulation.
The strong potentiators were subjected to secondary analysis to select a subset for further analysis. None of the strong potentiators stimulated I^− influx in the fluorescence assay using FRT null cells (expressing YFP-H148Q/[…] alone) or in ΔF508-CFTR expressing cells in the absence of forskolin. The increased I^− influx for each potentiator was blocked by the thiazolidinone CFTR inhibitor CFTRinh-172 (19). […] Several of these compounds are shown in FIG. 6, along with data as to the activity of these compounds.

cellular cAMP content = experiment: Cellular cAMP content in FRT cells (BIOTRAK enzymatic immunoassay); format: cell-based, rat
Procedure: (§2) cAMP activity was measured using the BIOTRAK enzymatic immunoassay (Amersham) on FRT cell lysates after incubation with the compound of interest for 10 min without or with 0.5 μM forskolin. Phosphatase activity was determined on cell homogenates using a non-radioactive assay kit (Promega) as described previously (Galietta et al., (2001) J. Biol. Chem. 276, 19723-19728).
(§3) The compounds shown in FIGS. 2A and 3A were assayed for cAMP stimulation and phosphatase inhibition. Cellular cAMP content was measured in FRT cells in the presence of a low forskolin concentration (0.5 μM) with or without test compounds. […] Maximal forskolin (20 μM) gave 1350±17 finol/well. The ΔF508 potentiators at 5 μM gave no increase in cellular cAMP content, except for ΔF508act-04 and ΔF508act-06, which gave modest cAMP elevations (212±17 and 281±37 finol/well, respectively). […] The ΔF508-CFTR potentiators (25 μM, 48 h) were judged to be non-toxic to FRT cells by the dihydrorhodamine assay (Wang et al., (2000) J. Physiol. 524:637-638) and by unimpaired cell growth.

[1] = tested on: human bronchial epithelial cells; experiment: Short-circuit current in human bronchial epithelial cells; format: cell-based; conditions: S.E., n=3-5
Procedure: Using chamber experiments were performed 7-9 days after plating ΔF508-CFTR expressing FRT cells on Snapwell inserts. The basolateral solution contained (in mM): 130 NaCl, 2.7 KCl, 1.5 KH2PO4, 1 CaCl2, 0.5 MgCl2, 10 glucose, 10 Na-Hepes (pH 7.3). In the apical bathing solution 65 mM NaCl was replaced by Na gluconate, and CaCl2 was increased to 2 mM. Solutions were bubbled with air and maintained at 37° C. The basolateral membrane was permeabilized with 250 μg/ml amphotericin B. For human bronchial epithelial cells, apical and basolateral chambers contained 126 mM NaCl, 0.38 mM KH2PO4, 2.1 mM K2HPO, 1 mM MgSO4, 1 mM CaCl2, 24 mM NaHCO3, and 10 mM glucose (basolateral membrane not permeabilized). The hemichambers were connected to a DVC-1000 voltage clamp (World Precision Instruments) via Ag/AgCl electrodes and 1 M KCl agar bridges for recording short-circuit current
The mean increase in short-circuit current (Isc) was 1.2±0.1 μA/cm^2 in the human cells (S.E., n=25). In five sets of measurements on the human bronchial cells, the percentage increase in Isc after compound versus forskolin alone was 174±28 (genistein); percentages for ΔF508act-01 through ΔF508act-06 were (S.E., n=3-5): 174±34, 131±35, 40±11, 51±17, 107±42, and 104±35, respectively.

G551D-CFTR = molecular target: T2, G551D-CFTR (Homo sapiens, UniProt P13569, G551D); experiment: Activation of G551D-CFTR in transfected FRT cells; format: cell-based; conditions: positive control 50 μM + 20 μM forskolin
T2 construct: expressed in transfected cells; host or cells: FRT cells
T2 sequence (P13569 whole entry G551D): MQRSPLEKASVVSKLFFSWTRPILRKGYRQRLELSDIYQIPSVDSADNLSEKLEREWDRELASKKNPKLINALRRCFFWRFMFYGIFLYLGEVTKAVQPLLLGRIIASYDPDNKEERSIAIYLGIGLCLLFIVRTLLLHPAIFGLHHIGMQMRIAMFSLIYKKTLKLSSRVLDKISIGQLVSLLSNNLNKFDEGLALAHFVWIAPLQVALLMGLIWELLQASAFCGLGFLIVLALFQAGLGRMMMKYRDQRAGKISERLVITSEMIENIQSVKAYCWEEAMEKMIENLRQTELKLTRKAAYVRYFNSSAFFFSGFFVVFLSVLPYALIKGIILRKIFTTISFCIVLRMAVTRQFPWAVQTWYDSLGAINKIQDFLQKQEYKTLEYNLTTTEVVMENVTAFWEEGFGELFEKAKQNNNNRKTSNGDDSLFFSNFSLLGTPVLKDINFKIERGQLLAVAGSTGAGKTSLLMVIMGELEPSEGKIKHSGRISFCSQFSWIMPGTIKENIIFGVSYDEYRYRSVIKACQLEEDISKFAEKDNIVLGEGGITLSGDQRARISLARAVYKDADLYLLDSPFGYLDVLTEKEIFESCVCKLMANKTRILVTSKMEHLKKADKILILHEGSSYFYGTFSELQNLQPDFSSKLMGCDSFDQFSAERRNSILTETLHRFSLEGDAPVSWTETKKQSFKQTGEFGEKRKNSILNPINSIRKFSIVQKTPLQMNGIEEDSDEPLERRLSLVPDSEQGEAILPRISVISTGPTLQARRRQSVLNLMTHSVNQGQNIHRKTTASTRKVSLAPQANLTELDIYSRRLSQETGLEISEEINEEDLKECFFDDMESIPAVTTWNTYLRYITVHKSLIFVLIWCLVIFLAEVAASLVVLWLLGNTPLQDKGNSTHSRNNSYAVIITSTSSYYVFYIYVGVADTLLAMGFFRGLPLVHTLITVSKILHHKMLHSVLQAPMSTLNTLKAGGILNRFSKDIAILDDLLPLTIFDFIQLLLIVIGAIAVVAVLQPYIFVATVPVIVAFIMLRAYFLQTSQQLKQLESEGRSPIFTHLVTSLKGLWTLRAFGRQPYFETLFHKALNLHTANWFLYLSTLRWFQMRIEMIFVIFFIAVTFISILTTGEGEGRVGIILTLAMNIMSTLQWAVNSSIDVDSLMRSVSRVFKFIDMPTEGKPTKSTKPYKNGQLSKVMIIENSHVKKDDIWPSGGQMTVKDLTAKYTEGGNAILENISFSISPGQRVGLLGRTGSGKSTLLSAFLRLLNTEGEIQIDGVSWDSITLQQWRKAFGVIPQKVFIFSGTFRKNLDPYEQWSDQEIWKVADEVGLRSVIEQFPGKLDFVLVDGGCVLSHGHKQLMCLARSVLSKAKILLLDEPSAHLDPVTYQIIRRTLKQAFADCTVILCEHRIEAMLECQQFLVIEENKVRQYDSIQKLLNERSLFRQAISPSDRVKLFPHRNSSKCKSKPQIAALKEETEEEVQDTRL
Procedure: as §1, with “For screening, cells were cultured on plastic in Coon's modified F12 medium supplemented with 10% fetal bovine serum, 2 mM L-glutamnine, 100 U/ml penicillin, and 100 μg/ml streptomycin, and plated on black 96-well microplates (Corning-Costar 3904) at 30,000 cells/well.” left out

phosphatase activity = experiment: Phosphatase activity assay on cell homogenates; format: biochemical
Procedure: as §2, §3

wildtype CFTR = molecular target: T3, wildtype CFTR (Homo sapiens, UniProt P13569); experiment: Activation of wildtype CFTR in transfected FRT cells; format: cell-based; conditions: in the presence of forskolin 50 nM
T3 construct: expressed in transfected cells; host or cells: FRT cells
T3 sequence (P13569 whole entry): as the sequence (P13569 whole entry G551D) above, with D551G counted along it
Procedure: as §1
The six ΔF508-CFTR potentiators shown in FIG. 2A were tested for activation of wildtype and G551D-CFTR in transfected FRT cells. […] Kd values for activation of wildtype CFTR by ΔF508act-01 through ΔF508act-06 were (in μM): 0.18±0.02, 1.3±0.2, 2.2±0.3, 0.02±0.005, 0.06±0.01 and 0.05±0.01, respectively. These potencies are quite different from those for ΔF508-CFTR activation.

[2] = compound 5 μM, forskolin 0.5 μM, control 129±7

Which “effect on potentiator-increased I− influx” value (human ΔF508-CFTR) does the source give for `O=C(O)c1ccc(/C=C2\SC(=S)N(c3cccc(C(F)(F)F)c3)C2=O)cc1` [CFTRinh-172, reference compound] here?
The value was “blocked”.

For `C=C[C@@]1(C)CC(=O)[C@]2(O)[C@@]3(C)[C@@H](O)CCC(C)(C)[C@@H]3[C@H](O)[C@H](OC(C)=O)[C@@]2(C)O1` [forskolin, reference compound], which cAMP content (cellular cAMP content; maximal forskolin 20 μM) is on record?
Its cAMP content is 1350±17 finol/well.

For `O=c1c(-c2ccc(O)cc2)coc2cc(O)cc(O)c12` [genistein, reference compound], which “percentage increase in Isc after compound versus forskolin alone” value (“percentage increase in Isc” for short) [1] is on record?
The value was 174±28%.

And the G551D-CFTR activation (G551D-CFTR)?
Its G551D-CFTR activation is “strong activation”.

For `C=C1[C@@H](O)[C@@H]2O[C@]3(CC[C@H](/C=C/[C@@H](C)[C@@H]4CC(C)=C[C@@]5(O[C@H](C[C@@](C)(O)C(=O)O)CC[C@H]5O)O4)O3)CC[C@H]2O[C@@H]1[C@@H](O)C[C@H](C)[C@H]1O[C@@]2(CCCCO2)CC[C@H]1C` [okadaic acid], which “inhibition of phosphatase activity” value (phosphatase activity) is on record?
Its value is greater than 90%.

And the phosphatase activity (phosphatase activity; control 703±69)?
Its phosphatase activity is 56±15 pmol free phosphate/μg protein.

`COc1ccc(-n2c(C)cc(C=C3C(=O)NC(=O)N(Cc4ccco4)C3=O)c2C)cc1` [ΔF508act-01, 1-Furan-2-yhnethyl-5-[1-(4-methoxy-phenyl)-2,5-dimethyl-1H-pyrrol-3-ylmethylene]-pyrimidine-2,4,6-trione] was tested. Which “percentage increase in Isc” value [1] did it give?
Its value is 174±34%.

And the Kd (human ΔF508-CFTR)?
The Kd was 1300 ± 100 nM.

For `NC(=O)c1c(NC(=O)c2ccccc2Cl)sc2c1CCCC2` [ΔF508act-02, 2-(2-Chloro-benzoylamino)-4,5,6,7-tetrahydro-benzo[b]thiophene-3-carboxylic acid amide], which “percentage increase in Isc” value [1] is on record?
Its value is 131±35%.

And the Kd (human ΔF508-CFTR)?
The Kd was 180 ± 30 nM.

And the Kd (wildtype CFTR)?
Its Kd is 1300 ± 200 nM.

Which “percentage increase in Isc” value [1] does the source give for `Cc1cc(Br)c2[nH]c3c(c2c1)CCCC3=O` [ΔF508act-03, 8-Bromo-6-methyl-2,3,4,9-tetrahydro-carbazol-1-one] here?
Its value is 40±11%.

What about the Kd (human ΔF508-CFTR) of the same compound?
Its Kd is 700 ± 40 nM.

And the Kd (wildtype CFTR)?
The Kd was 2200 ± 300 nM.

For `CC(C)(C)c1ccc(Oc2c(N)ccc3c2C(=O)c2ccccc2C3=O)cc1` [ΔF508act-04, 2-Amino-1-(4-tert-butyl-phenoxy)-anthraquinone], which “percentage increase in Isc” value [1] is on record?
The value was 51±17%.

What about the Kd (human ΔF508-CFTR) of the same compound?
Its Kd is 870 ± 100 nM.

What about the Kd (wildtype CFTR) of the same compound?
The Kd was 20 ± 5 nM.

And the cAMP content (cellular cAMP content; [2])?
Its cAMP content is 212±17 finol/well.

What does the source list for `COC(=O)C1=C(C)NC(C)=C(C(=O)OC)C1c1ccc(C(C)C)cc1` [ΔF508act-05, 4-(4-Isopropyl-phenyl)-2,6-dimethyl-1,4-dihydro-pyridine-3,5-dicarboxylic acid dimethyl ester]?
percentage increase in Isc after compound versus forskolin alone [1]: 107±42%; Kd (human ΔF508-CFTR): 100 ± 10 nM; Kd (wildtype CFTR): 60 ± 10 nM

Which results are given for `NC(=O)c1oc2ccccc2c1NC(=O)c1ccccc1` [ΔF508act-06, 3-Benzoylamino-benzofuran-2-carboxylic acid amide]?
percentage increase in Isc after compound versus forskolin alone [1]: 104±35%; Kd (human ΔF508-CFTR): 650 ± 80 nM; Kd (wildtype CFTR): 50 ± 10 nM; cAMP content (cellular cAMP content; [2]): 281±37 finol/well
